Results from doi:10.1101/520460v1, “Chromokinesins NOD and KID Use Distinct ATPase Mechanisms and Microtubule Interactions to Perform a Similar Function” (biorxiv, 2019).

Target: T1, KID (Homo sapiens, UniProt Q14807)
T1 construct: gene KIF22; Glu-C V8 protease added in crystallization
T1 sequence (Q14807 40-400): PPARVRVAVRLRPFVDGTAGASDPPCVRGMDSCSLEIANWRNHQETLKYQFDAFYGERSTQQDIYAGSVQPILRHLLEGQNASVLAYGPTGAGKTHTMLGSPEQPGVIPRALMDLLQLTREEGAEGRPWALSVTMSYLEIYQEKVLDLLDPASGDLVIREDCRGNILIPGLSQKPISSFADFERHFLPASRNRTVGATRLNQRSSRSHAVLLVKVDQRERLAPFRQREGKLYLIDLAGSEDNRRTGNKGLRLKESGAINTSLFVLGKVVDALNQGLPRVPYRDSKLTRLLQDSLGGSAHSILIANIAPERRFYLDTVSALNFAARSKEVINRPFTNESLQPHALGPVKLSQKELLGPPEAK
Assay: X-ray crystal structure of the complex
Type: binding
Settings: crystals from 3.2 M NaCl, 0.1 M Tris pH 8.5, 291 K, 5 molar fold MgADP

SMILES: Nc1ncnc2c1ncn2[C@@H]1O[C@H](COP(=O)(O)OP(=O)(O)O)[C@@H](O)[C@H]1O [ADP]
- X-ray crystal structure of the complex: We solved the X-ray crystal structure of the KID catalytic domain in the ADP state
